Measured values published in ChEMBL document CHEMBL1132682, “High affinity retinoic acid receptor antagonists: analogs of AGN 193109” (Bioorg Med Chem Lett, 1999).

Key:
[1] = molecular target: T1, Retinoic acid receptor beta (Homo sapiens, UniProt P10826); assay: Ability to displace 3[H](all-E)-retinoic acid (5 nM) from beta retinoic acid receptor (beta RAR) using transactivation assay
T1 sequence (P10826 whole entry): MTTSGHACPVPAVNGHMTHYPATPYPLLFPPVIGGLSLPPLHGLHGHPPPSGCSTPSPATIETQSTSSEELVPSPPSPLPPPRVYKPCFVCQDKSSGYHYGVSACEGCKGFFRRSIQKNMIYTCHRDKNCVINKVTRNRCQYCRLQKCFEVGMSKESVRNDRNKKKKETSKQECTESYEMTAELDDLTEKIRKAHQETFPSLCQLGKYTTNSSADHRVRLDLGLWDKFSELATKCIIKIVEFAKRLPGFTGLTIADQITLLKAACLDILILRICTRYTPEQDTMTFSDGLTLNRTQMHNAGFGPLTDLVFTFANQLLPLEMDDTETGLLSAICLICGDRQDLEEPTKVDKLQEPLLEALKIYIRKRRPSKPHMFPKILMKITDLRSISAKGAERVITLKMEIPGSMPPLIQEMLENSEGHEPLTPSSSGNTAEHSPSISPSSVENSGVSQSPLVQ

[2] = molecular target: T2, Retinoic acid receptor alpha (Homo sapiens, UniProt P10276); assay: Ability to displace 3[H](all-E)-retinoic acid (5 nM) from alpha retinoic acid receptor (alpha RAR) using transactivation assay
T2 sequence (P10276 whole entry): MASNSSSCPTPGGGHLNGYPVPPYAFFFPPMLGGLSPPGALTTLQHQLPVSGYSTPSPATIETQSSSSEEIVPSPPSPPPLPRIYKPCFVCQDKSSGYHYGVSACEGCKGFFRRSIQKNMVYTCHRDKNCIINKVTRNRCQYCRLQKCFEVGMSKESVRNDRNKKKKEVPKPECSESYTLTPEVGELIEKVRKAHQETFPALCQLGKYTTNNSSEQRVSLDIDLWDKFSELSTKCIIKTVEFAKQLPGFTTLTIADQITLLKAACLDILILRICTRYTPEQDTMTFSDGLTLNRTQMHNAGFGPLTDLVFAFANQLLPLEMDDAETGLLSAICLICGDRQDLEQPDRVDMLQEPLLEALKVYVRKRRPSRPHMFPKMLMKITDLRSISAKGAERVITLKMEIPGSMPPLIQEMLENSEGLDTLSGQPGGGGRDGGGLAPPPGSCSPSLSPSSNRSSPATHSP

[3] = molecular target: T3, Retinoic acid receptor gamma (Homo sapiens, UniProt P13631); assay: Ability to displace 3[H](all-E)-retinoic acid (5 nM) from Retinoic acid receptor gamma using transactivation assay
T3 sequence (P13631 whole entry): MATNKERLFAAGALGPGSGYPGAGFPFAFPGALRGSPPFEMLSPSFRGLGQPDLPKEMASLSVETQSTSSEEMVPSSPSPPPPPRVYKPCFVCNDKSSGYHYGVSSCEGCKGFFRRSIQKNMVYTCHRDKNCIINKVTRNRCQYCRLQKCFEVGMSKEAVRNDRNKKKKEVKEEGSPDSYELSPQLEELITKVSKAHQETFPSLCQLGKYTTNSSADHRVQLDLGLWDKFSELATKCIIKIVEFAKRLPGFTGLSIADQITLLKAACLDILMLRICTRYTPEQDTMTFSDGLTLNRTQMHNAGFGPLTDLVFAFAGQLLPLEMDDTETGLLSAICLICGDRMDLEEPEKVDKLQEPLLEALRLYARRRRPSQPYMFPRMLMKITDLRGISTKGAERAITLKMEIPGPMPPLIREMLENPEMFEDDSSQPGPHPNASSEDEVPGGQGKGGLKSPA

Structure (SMILES)	Kd [1] [nM]	Kd [2] [nM]	Kd [3] [nM]
CC1(C)CC=C(c2ccc(O)cc2)c2cc(C#Cc3ccc(C(=O)O)cc3)ccc21	72	229	98
Cc1cccc(C2=CCC(C)(C)c3ccc(C#Cc4ccc(C(=O)O)cc4)cc32)c1	51	276	67
Cc1cc(C)cc(C2=CCC(C)(C)c3ccc(C#Cc4ccc(C(=O)O)cc4)cc32)c1	274	1050	408
CC(C)c1ccc(C2=CCC(C)(C)c3ccc(C#Cc4ccc(C(=O)O)cc4)cc32)cc1	11	90	171
CCc1ccc(C2=CCC(C)(C)c3ccc(C#Cc4ccc(C(=O)O)cc4)cc32)cc1	10	40	19
CC1(C)CC=C(c2ccccc2)c2cc(C#Cc3ccc(C(=O)O)cc3)ccc21	33	147	42
Cc1ccccc1C1=CCC(C)(C)c2ccc(C#Cc3ccc(C(=O)O)cc3)cc21	29	103	35
CC1(C)CC=C(c2ccc(C(F)(F)F)cc2)c2cc(C#Cc3ccc(C(=O)O)cc3)ccc21	29	44	57
CC1(C)CC=C(c2ccc(Cl)cc2)c2cc(C#Cc3ccc(C(=O)O)cc3)ccc21	18	58	27
CC1(C)CC=C(c2ccc(F)cc2)c2cc(C#Cc3ccc(C(=O)O)cc3)ccc21	52	85	82
COc1ccc(C2=CCC(C)(C)c3ccc(C#Cc4ccc(C(=O)O)cc4)cc32)cc1	16	60	36
CC1(C)CC=C(c2cccc(O)c2)c2cc(C#Cc3ccc(C(=O)O)cc3)ccc21	162	919	254
CC1(C)CC=C(c2ccc(C#N)cc2)c2cc(C#Cc3ccc(C(=O)O)cc3)ccc21	14	38	51
Cc1ccc(C2=CCC(C)(C)c3ccc(C#Cc4ccc(C(=O)O)cc4)cc32)cc1	7	16	7
CC(C)(C)c1ccc(C2=CCC(C)(C)c3ccc(C#Cc4ccc(C(=O)O)cc4)cc32)cc1	21	178	94
